Measurements: ChEMBL document CHEMBL1141995, “N-i-Propoxy-N-biphenylsulfonylaminobutylhydroxamic acids as potent and selective inhibitors of MMP-2 and MT1-MMP” (Bioorg Med Chem Lett, 2005)

What was measured:
[1] = target: Matrix metalloproteinase-14 (Homo sapiens, UniProt P50281); test: Inhibition of human matrix metalloprotease-14
Matrilysin = target: T1, Matrilysin (Homo sapiens, UniProt P09237); test: Inhibition of human matrix metalloprotease-7
T1 sequence (P09237 whole entry): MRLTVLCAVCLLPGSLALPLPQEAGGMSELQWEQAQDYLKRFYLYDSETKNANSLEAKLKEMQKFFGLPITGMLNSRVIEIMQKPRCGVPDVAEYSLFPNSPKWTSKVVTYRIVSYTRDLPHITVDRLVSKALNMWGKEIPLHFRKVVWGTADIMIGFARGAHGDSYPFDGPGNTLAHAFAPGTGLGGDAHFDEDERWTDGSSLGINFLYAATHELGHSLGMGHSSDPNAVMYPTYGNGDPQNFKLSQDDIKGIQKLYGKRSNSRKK

[2] = target: 72 kDa type IV collagenase (Homo sapiens, UniProt P08253); test: Inhibition of human matrix metalloprotease-2
Sequence of 72 kDa type IV collagenase (P08253 whole entry): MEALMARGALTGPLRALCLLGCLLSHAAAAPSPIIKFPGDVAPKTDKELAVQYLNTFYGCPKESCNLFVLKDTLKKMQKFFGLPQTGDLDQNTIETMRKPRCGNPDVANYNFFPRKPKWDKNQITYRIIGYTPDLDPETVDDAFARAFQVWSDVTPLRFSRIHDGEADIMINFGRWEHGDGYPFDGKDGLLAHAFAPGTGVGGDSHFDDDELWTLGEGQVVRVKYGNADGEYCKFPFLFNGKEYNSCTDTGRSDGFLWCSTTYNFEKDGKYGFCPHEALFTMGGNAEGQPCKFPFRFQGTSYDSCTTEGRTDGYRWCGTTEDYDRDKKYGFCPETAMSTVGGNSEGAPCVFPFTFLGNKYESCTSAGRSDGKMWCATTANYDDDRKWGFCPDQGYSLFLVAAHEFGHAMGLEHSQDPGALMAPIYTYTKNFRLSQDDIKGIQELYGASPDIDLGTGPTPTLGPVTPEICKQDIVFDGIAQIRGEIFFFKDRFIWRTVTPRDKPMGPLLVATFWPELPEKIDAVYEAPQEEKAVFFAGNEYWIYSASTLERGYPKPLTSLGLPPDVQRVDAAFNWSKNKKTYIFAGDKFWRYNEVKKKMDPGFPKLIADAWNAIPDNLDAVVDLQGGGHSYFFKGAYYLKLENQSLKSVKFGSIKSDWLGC

[3] = target: Matrix metalloproteinase-9 (Homo sapiens, UniProt P14780); test: Inhibition of human matrix metalloprotease-9
Sequence of Matrix metalloproteinase-9 (P14780 whole entry): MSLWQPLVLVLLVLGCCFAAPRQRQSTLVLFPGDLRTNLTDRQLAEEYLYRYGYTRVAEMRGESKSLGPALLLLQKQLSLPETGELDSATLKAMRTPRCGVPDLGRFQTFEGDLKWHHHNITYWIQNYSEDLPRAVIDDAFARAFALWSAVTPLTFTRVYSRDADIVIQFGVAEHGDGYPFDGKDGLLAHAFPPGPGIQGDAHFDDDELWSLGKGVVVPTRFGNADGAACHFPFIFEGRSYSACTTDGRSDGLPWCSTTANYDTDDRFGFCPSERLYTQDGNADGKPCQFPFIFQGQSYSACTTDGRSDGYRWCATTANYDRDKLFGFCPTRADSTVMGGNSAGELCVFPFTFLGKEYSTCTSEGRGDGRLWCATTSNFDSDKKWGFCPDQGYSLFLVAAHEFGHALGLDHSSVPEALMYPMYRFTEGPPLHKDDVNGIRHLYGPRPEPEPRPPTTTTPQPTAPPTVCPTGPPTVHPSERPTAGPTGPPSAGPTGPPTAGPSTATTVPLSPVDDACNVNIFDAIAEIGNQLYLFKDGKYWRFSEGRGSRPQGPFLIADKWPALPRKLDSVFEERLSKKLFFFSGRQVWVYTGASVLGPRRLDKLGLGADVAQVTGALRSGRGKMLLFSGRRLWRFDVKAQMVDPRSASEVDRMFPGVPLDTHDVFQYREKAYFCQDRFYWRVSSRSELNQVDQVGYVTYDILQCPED

Interstitial collagenase = target: T2, Interstitial collagenase (Homo sapiens, UniProt P03956); test: Inhibition of human matrix metalloprotease-1
T2 sequence (P03956 whole entry): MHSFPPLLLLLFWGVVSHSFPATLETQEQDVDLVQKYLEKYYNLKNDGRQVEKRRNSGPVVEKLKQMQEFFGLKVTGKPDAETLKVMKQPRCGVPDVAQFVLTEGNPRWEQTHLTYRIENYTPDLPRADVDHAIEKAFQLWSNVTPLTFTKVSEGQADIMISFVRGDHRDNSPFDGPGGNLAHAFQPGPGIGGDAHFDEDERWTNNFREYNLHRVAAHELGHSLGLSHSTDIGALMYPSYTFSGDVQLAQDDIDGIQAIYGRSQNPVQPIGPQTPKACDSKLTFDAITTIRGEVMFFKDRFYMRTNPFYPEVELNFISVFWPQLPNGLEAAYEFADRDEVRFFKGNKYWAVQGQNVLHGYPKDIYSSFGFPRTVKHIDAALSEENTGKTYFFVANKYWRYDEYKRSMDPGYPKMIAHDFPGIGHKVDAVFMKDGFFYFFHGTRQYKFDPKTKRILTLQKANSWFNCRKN

Stromelysin-1 = Stromelysin-1 (Homo sapiens, UniProt P08254); test: Inhibition of human matrix metalloprotease-3
Sequence of Stromelysin-1 (P08254 whole entry): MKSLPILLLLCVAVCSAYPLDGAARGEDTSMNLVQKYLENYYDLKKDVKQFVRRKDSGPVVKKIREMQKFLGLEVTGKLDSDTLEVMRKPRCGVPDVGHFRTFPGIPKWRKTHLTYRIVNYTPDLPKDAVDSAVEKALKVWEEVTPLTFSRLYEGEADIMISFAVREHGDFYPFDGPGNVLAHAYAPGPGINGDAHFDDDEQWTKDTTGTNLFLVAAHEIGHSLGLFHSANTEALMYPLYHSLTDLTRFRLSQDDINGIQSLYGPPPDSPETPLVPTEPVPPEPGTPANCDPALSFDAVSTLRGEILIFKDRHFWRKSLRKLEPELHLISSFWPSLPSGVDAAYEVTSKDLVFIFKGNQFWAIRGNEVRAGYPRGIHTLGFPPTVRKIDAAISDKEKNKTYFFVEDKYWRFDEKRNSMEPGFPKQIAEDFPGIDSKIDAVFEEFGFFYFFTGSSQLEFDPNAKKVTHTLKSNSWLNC

Neutrophil collagenase = Neutrophil collagenase (Homo sapiens, UniProt P22894); test: Inhibition of human matrix metalloprotease-8
Sequence of Neutrophil collagenase (P22894 whole entry): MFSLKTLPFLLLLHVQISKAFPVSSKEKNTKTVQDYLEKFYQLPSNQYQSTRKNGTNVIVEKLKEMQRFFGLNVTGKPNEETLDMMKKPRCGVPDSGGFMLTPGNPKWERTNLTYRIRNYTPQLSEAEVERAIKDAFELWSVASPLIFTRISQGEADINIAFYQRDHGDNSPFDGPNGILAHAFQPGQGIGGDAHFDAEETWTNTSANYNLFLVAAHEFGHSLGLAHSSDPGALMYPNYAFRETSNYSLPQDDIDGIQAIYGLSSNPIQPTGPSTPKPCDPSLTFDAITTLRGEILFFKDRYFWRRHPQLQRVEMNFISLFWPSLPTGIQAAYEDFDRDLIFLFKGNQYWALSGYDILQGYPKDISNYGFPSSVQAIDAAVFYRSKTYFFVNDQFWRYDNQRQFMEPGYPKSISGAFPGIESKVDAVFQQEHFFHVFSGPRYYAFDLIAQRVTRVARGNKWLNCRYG

Row | IC50 [1] [nM] | IC50 (Matrilysin) [nM] | IC50 [2] [nM] | IC50 [3] [nM] | IC50 (Stromelysin-1) [nM] | IC50 (Neutrophil collagenase) [nM] | Compound | IC50 (Interstitial collagenase) [nM]
1 |  |  | 10.3 | 13 |  |  | CC(C)ON([C@H](C(=O)NO)C(C)C)S(=O)(=O)c1ccc(-c2ccccc2)cc1 | 
2 |  |  | 1.8 | 19.6 |  |  | CC(C)ON(C(C(=O)NO)C(C)C)S(=O)(=O)c1ccc(-c2ccccc2)cc1 (racemic) | 
3 | 9.8 | > 11100 | 0.09 | 6.7 | 50 | 1.6 | CC(C)ON([C@@H](C(=O)NO)C(C)C)S(=O)(=O)c1ccc(-c2ccccc2)cc1 | 

Further lines, the compound ahead of its results:

Row | Compound | IC50 [1] [nM] | IC50 (Matrilysin) [nM] | IC50 [2] [nM] | IC50 [3] [nM] | IC50 (Stromelysin-1) [nM] | IC50 (Neutrophil collagenase) [nM] | IC50 (Interstitial collagenase) [nM]
4 | COc1ccc(S(=O)(=O)N(Cc2cccnc2)[C@@H](C(=O)NO)C(C)C)cc1 [CGS-27023A] | 8.9 | 100 |  |  |  |  | 
5 | CC(C)ON([C@H](CCNC(=O)OCc1ccccc1)C(=O)NO)S(=O)(=O)c1ccc(-c2ccccc2)cc1 | 7.7 | > 24400 | 0.41 | 16 | 130 |  | > 3000
6 | CC(C)ON([C@H](CCN)C(=O)NO)S(=O)(=O)c1ccc(-c2ccccc2)cc1 | > 300 |  | 935 | 4520 |  |  | 
7 | CC1(C)SCCN(S(=O)(=O)c2ccc(Oc3ccncc3)cc2)[C@H]1C(=O)NO [PRINOMASTAT] | 0.3 | 54 |  |  |  |  | 
8 | CC(C)ON(CC(=O)NO)S(=O)(=O)c1ccc(-c2ccccc2)cc1 | > 10000 | > 50000 | 12 | 200 | 4500 |  | > 50000
